We go through one compound from patent publication US7041639B2, “Depsipeptide and congeners thereof for use as immunosuppressants” (XCYTE Therapies, Inc., priority 1999, dated 2006).

For data set [1], the system named is peripheral blood lymphocyte (PBL). The data set is described as follows: Proliferation by MTT assay, PBL cultures. It is filed as cell-based, human. The protocol:
Cells isolated from human blood are grown in X-vivo media (Biowhittaker Inc., Walkersville, Md.) and depending on use supplemented with or without 20 U/ml IL-2 (Boehringer Mannheim, Indianapolis, Ind.) and supplemented with 5% human serum (Biowhittaker), 2 mM Glutamine (Life Technologies, Rockville, Md.) and 20 mM HEPES (Life Technology). Jurkat E6-1 cells (ATCC, Manassas, Va.) are grown in RPMI 1640 (Life Technologies) supplemented with 10% fetal bovine serum (FBS) (Biowhittaker), 2 mM glutamine (Life Technologies), […] (Life Technologies), and […] (Life Technologies).
Buffy coats from healthy human volunteer donors are obtained (American Red Cross, Portland, Oreg.). Peripheral blood mononuclear cells (PBMC) are obtained using Lymphocyte Separation Media (ICN Pharmaceuticals, Costa Mesa, Calif.) according to the manufacturers' instructions.
Peripheral blood lymphocytes (PBL) are obtained from the PBMC fraction by incubation in a culture flask (Costar, Pittsburgh, Pa.) or with uncoated Dynabeads (Dynal, Oslo, Norway), 1×10^8 cells/ml, 2 beads/cell, 2 h at 37° C. Monocytes and macrophages are removed by adherence to the culture flask or phagocytoze the paramagnetic beads that are depleted by magnetic cell separation according to the manufacture's instruction (Dynal). […] The purity of CD4 cells are routinely 91–95% as measured by flow cytometry. […]
(In general: Formazan colour is commonly taken as a measure of viable cells.)

A further data set concerns T-cells. The data set is described as follows: Cell survival / viability (sub-G1 DNA, membrane integrity, propidium iodide exclusion). It counts as cell-based, human. The protocol:
Cells are stimulated by three different methodologies 1) Dynabeads (M-450) covalently coupled to anti-CD3 (OKT-3) and anti-CD28 (9.3) antibodies (3×28 beads) according to the manufacturer's instructions (Dynal), 3 beads/cell, 2) Ionomycin (Calbiochem, La Jolla, Calif.) (100 ng/ml) and phorbol 12-myristate-13-acetate (PMA) (Calbiochem) (10 ng/ml), 3) allogeneic dendritic cells (25,000 dendritic cells/200,000 CD4 cells). All cells are stimulated at a concentration of 1×10^6 cells/ml. Cells are incubated with compounds of structure (I) (e.g., FR901228) (NCI, Bethesda, Md.) for 1 to 2 hours prior to stimulation as outlined above. Proliferation assays are conducted in quadruplicate in 96 well flat-bottom plates. Cells are stimulated at 1×10^6 cells/ml in a final volume of 200 μl. Proliferation is measured by MTT assay (MTT assay kit, Chemicon International Inc., Temecula, Calif.) at day 3 (stimulation method 1 and 2) or at day 6 (stimulation method 3), and results are presented as mean value of quadruplicates. PBL cultures or purified CD4 cell cultures are stimulated with 3×28 beads, ionomycin/PMA or allogenic dendritic cells. […] Further, […] cell survival is not affected by FR901228, as assessed by sub-G1 DNA measurement and integrity of the cell membrane (FIG. 5D). […]

In another data set the test system is CD4 cells. The data set can be described thus: Intracellular DNA content by propidium iodide staining (cell cycle). To be noted: 3×28 beads 24 hours; 10 to 100 ng/ml; FIG. 12. It counts as cell-based, human. As for the experimental part:
Unstimulated and stimulated (3×28 bead stimulation) CD4 cells were incubated with varying concentrations FR901228 and the intracellular DNA content was measured by staining with propidium iodide (PI) using standard procedures. In brief, the cells were stained with a mixture of 1 μg/ml PI and 0.03% saponin in PBS for about 20 to 30 minutes. […] Accordingly, FR901228 appears to inhibit the cell cycle of activated T-cells prior to entry of S-phase.

Another data set has as its system bulk phosphorylation. The data set can be described thus: Phosphotyrosine Western blots. It is filed as cell-based. From the text: FR901228 has a number of features that aid its ability to act as a potent immunosuppressant. […] Thus, these observations indicate that compounds of structure (I) affect the T-cell activation pathway at multiple points, thus allowing activation to proceed into early stages, such as phosphorylation, but preventing subsequent events of activation and proliferation.

Another data set relates to A1.1 T-cell hybridoma. The note with it: Wang et al., Oncogene 1998; cited from earlier work.

On to `C/C=C1\NC(=O)[C@H]2CSSCC/C=C/[C@H](CC(=O)N[C@H](C(C)C)C(=O)N2)OC(=O)[C@H](C(C)C)NC1=O` [FR901228], for which the “inhibition of peripheral blood lymphocyte (PBL) proliferation” value in data set [1] (stimulation by beads having anti-CD3 and anti-CD28 antibodies, FIG. 1) is “dose dependent inhibition”; in data set [1] (stimulation with Ionomycin/PMA, FIG. 2) it was “dose dependent inhibition”. Besides, the “cell survival by sub-G1 DNA measurement and integrity of the cell membrane” value with T-cells (FIG. 5D) is “not affected”. For the same compound, the “cell viability by propidium iodide (PI) exclusion” value with T-cells (concentrations up to 100 ng/ml) is reported as “not significantly affected”. In the data set with CD4 cells, the “DNA synthesis in stimulated CD4 cells” value was “DNA synthesis does not take place”. For the same compound, the bulk phosphorylation result in the data set on bulk phosphorylation is “does not affect”. Besides, the “CD3-induced IL-2 production” value in the data set with A1.1 T-cell hybridoma is given as “did not inhibit”.
